Measured values taken from patent US20100316529A1, “Anti-Microbial Systems and Methods” (priority 2001, published 2010).
Values joined by “and” are separate entries in the source; they are usually repeats but may differ in a detail not shown here. Identical values can stand only once.

Experiments:
Assay type in all cases: cell-based
Kleb. ornitholytica = test: EDTA salt dilution test, MIC/MBC
Proteus vulgaris = test: EDTA salt dilution test, MIC/MBC
Ent. faeculm = test: EDTA salt dilution test, MIC/MBC
Steno. maltophilia = test: EDTA salt dilution test, MIC/MBC
Cornyeform amycolatum = test: EDTA salt dilution test, MIC/MBC
S. lentus = test: EDTA salt dilution test, MIC/MBC
Method: (§1) Protocol one: Broth dilutions:
(§2) Inoculate a 25 ml nutrient broth (Oxoid No2) in a sterile universal container with one of the following organisms; Pseudomonas aeruginosa, Proteus Mirabilis, E. coli, Klebsiella pneumoniae, Staph aureus, Coagulase negative staphylococci, Enterococcus faecalis or MRSA.
(§3) Incubate the broth at 37° C. overnight.
(§4) To make these concentrations put the EDTA needed for 10 mLs in only 9 mLs of broth in sterile universal containers, as this will be diluted further when the organisms are added.
(§5) Dilute the overnight broth cultures to 10^7 organisms/mL using more sterile nutrient broth.
(§6) Add 1 mL of this diluent to each of the EDTA series broths. This gives a final concentration of 10^6 organism/mL in the EDTA broths.
(§7) Incubate for 18 hours at 37° C.
(§8) Next day visually read the MIC's by observing the turbidity of the broths.
(§9) Plate out 1 uL of each dilution onto fresh blood agar plate and spread using a sterile plastic spreader.
(§10) Incubate overnight at 37° C.
(§11) Next day read the MBC's by performing colony counts.

MRSA = test: EDTA salt dilution test, MIC/MBC; settings: five entries
Method: as §1, §2, §3, §4, §5, §6, §7, §8, §9, §10, §11

S. aureus = test: EDTA salt dilution test, MIC/MBC; settings: five entries
Method: as §1, §2, §3, §4, §5, §6, §7, §8, §9, §10, §11

S. simulans = test: EDTA salt dilution test, MIC/MBC
Method: as §1, §2, §3, §4, §5, §6, §7, §8, §9, §10, §11

E. coli = test: EDTA salt dilution test, MIC/MBC; settings: three entries
Method: as §1, §2, §3, §4, §5, §6, §7, §8, §9, §10, §11

VRE = test: EDTA salt dilution test, MIC/MBC; settings: two entries
Method: as §1, §2, §3, §4, §5, §6, §7, §8, §9, §10, §11

Proteus mirabilis = test: EDTA salt dilution test, MIC/MBC; settings: two entries
Method: as §1, §2, §3, §4, §5, §6, §7, §8, §9, §10, §11

Pseudomonas aeruginosa = test: EDTA salt dilution test, MIC/MBC; settings: two entries
Method: as §1, §2, §3, §4, §5, §6, §7, §8, §9, §10, §11

Pseudomonas sp. = test: EDTA salt dilution test, MIC/MBC
Method: as §1, §2, §3, §4, §5, §6, §7, §8, §9, §10, §11

Kleb. pnemoniae = test: EDTA salt dilution test, MIC/MBC; settings: two entries
Method: as §1, §2, §3, §4, §5, §6, §7, §8, §9, §10, §11

Ent. faecalis = test: EDTA salt dilution test, MIC/MBC
Method: as §1, §2, §3, §4, §5, §6, §7, §8, §9, §10, §11

S. epidermidis = test: EDTA salt dilution test, MIC/MBC; settings: two entries
Method: as §1, §2, §3, §4, §5, §6, §7, §8, §9, §10, §11

S. capitis = test: EDTA salt dilution test, MIC/MBC; settings: two entries
Method: as §1, §2, §3, §4, §5, §6, §7, §8, §9, §10, §11

S. xylosus = test: EDTA salt dilution test, MIC/MBC
Method: as §1, §2, §3, §4, §5, §6, §7, §8, §9, §10, §11

Coryneform strait/amy = test: EDTA salt dilution test, MIC/MBC
Kleb. oxytoca = test: EDTA salt dilution test, MIC/MBC
C. lucitaniae = test: EDTA agar dilution method, yeasts, MIC/MBC; settings: Exhibit C
Text: (§12) Protocol 3: Agar dilutions.
Do this until all the media is used up.

C. glabrata = test: EDTA agar dilution method, yeasts, MIC/MBC; settings: two entries, Exhibit C
Method: (§13) The bactericidal effects were measured as the Minimum Bactericidal Concentration (MBC), while the inhibitory effects were measured as the Minimum Inhibitory Concentration (MIC). In each case, the concentration was measured as milligrams of the disinfectant salt per milliliter of water (mg/ml).
as §12
(§14) Prepare nutrient agar plates with increasing concentrations of EDTA, 0, 0.5, 1, 1.5, 2, 4, 6, 8, 10, 15, 20, 25, 30 mg/mL, using the following method. • Pour 300 mL distilled water into a sterile glass bottle. • Add the appropriate amount of EDTA. This is the concentration desired ×300, in grams. • Once the EDTA has fully dissolved, add 8.4 g of Nutrient agar powder (Oxoid). Mix thoroughly. • Do this for each concentration of EDTA required. […] Do this until all the media is used up. Label the plates with the concentration of EDTA they contain. • These plates can then be stored, until they are needed, in a 4° C. fridge. • Use an automatic plate inoculator to inoculate each plate with 21 organisms.

C. albicans = test: EDTA agar dilution method, yeasts, MIC/MBC; settings: three entries, Exhibit C
Method: as §13, §12, §14

C. parapsilosis = test: EDTA agar dilution method, yeasts, MIC/MBC; settings: Exhibit C
Method: as §13, §12, §14

C. tropicalis = test: EDTA agar dilution method, yeasts, MIC/MBC; settings: Exhibit C
Method: as §13, §12, §14

C. guilliermondii = test: EDTA agar dilution method, yeasts, MIC/MBC; settings: Exhibit C
Method: as §13, §12, §14

variety of microbes = test: Efficacy of disinfectant salts of EDTA against a number of microbes; settings: general statement
Method: The Applicant has tested the efficacy of a number of disinfectant salts of EDTA against a number of microbes.
as §1, §2, §3
Next day make up a series of nutrient broths containing a dilution of the appropriate EDTA as in the following list; 0 mg/mL, 0.25 mg/mL, 0.5 mg/mL, 1.0 mg/mL, 1.5 mg/mL, 2.0 mg/mL, 4.0 mg/mL, 6.0 mg/mL, 8.0 mg/mL, 10 mg/mL, 15 mg/mL, 20 mg/mL, 25 mg/mL, 30 mg/ml, 40 mg/mL, 50 mg/mL, 60 mg/mL, 70 mg/mL, 80 mg/mL, 90 mg/mL, 100 mg/mL.
as §4, §5, §6, §7
Next day visually read the MIC's by observing the turbidity of the broths. […]
as §11

Acinetobacter baumanii = test: EDTA salt dilution test, MIC/MBC; settings: two entries, Exhibit A2
Ent. cloacae = test: EDTA salt dilution test, MIC/MBC; settings: three entries

## O=C([O-])CN(CCN(CC(=O)O)CC(=O)O)CC(=O)[O-].[K+].[K+] [Dipotassium EDTA]
Kleb. ornitholytica; Exhibit A1
  MBC, minimum concentration required to kill an entire population: >15000 µg/mL
Kleb. ornitholytica; Exhibit A2
  MIC, minimum concentration required to inhibit growth: 1000 µg/mL
Proteus vulgaris; Exhibit A1
  MBC, minimum concentration required to kill an entire population: >15000 µg/mL
Proteus vulgaris; Exhibit A2
  MIC, minimum concentration required to inhibit growth: 1000 µg/mL
Ent. faeculm; Ent. faecuim, Exhibit A2
  MIC, minimum concentration required to inhibit growth: <500 µg/mL
Ent. faeculm; Ent. faeculm, Exhibit A1
  MBC, minimum concentration required to kill an entire population: 8000 µg/mL
Steno. maltophilia; Exhibit A1
  MBC, minimum concentration required to kill an entire population: 10000 µg/mL
Steno. maltophilia; Exhibit A2
  MIC, minimum concentration required to inhibit growth: <500 µg/mL
Cornyeform amycolatum; Exhibit A1
  MBC, minimum concentration required to kill an entire population: <500 µg/mL
Cornyeform amycolatum; Exhibit A2
  MIC, minimum concentration required to inhibit growth: <500 µg/mL
S. lentus; Exhibit A1
  MBC, minimum concentration required to kill an entire population: 10000 µg/mL
S. lentus; Exhibit A2
  MIC, minimum concentration required to inhibit growth: <500 µg/mL
MRSA; Exhibit A1
  MBC, minimum concentration required to kill an entire population: 6000 µg/mL and 10000 µg/mL and 8000 µg/mL
MRSA; Exhibit A2
  MIC, minimum concentration required to inhibit growth: 1000 µg/mL
S. aureus; Exhibit A1
  MBC, minimum concentration required to kill an entire population: 6000 µg/mL and 8000 µg/mL
S. aureus; Exhibit A2
  MIC, minimum concentration required to inhibit growth: 1000 µg/mL
S. simulans; Exhibit A1
  MBC, minimum concentration required to kill an entire population: 8000 µg/mL
S. simulans; Exhibit A2
  MIC, minimum concentration required to inhibit growth: <500 µg/mL
E. coli; Exhibit A1
  MBC, minimum concentration required to kill an entire population: >15000 µg/mL and 15000 µg/mL
E. coli; Exhibit A2
  MIC, minimum concentration required to inhibit growth: 1000 µg/mL
VRE; Exhibit A1
  MBC, minimum concentration required to kill an entire population: 8000 µg/mL
VRE; Exhibit A2
  MIC, minimum concentration required to inhibit growth: <500 µg/mL and 1000 µg/mL
Proteus mirabilis; Exhibit A1
  MBC, minimum concentration required to kill an entire population: >15000 µg/mL and 15000 µg/mL
Proteus mirabilis; Exhibit A2
  MIC, minimum concentration required to inhibit growth: <500 µg/mL
Pseudomonas aeruginosa; Exhibit A1
  MBC, minimum concentration required to kill an entire population: >15000 µg/mL
Pseudomonas aeruginosa; Exhibit A2
  MIC, minimum concentration required to inhibit growth: 1000 µg/mL
Pseudomonas sp.; Exhibit A1
  MBC, minimum concentration required to kill an entire population: 15000 µg/mL
Pseudomonas sp.; Exhibit A2
  MIC, minimum concentration required to inhibit growth: 1000 µg/mL
Kleb. pnemoniae; Exhibit A1
  MBC, minimum concentration required to kill an entire population: 15000 µg/mL
Kleb. pnemoniae; Exhibit A2
  MIC, minimum concentration required to inhibit growth: 1500 µg/mL and 1000 µg/mL
Ent. faecalis; Exhibit A1
  MBC, minimum concentration required to kill an entire population: 15000 µg/mL
Ent. faecalis; Exhibit A2
  MIC, minimum concentration required to inhibit growth: 1000 µg/mL
S. epidermidis; Exhibit A1
  MBC, minimum concentration required to kill an entire population: 8000 µg/mL
S. epidermidis; Exhibit A2
  MIC, minimum concentration required to inhibit growth: <500 µg/mL
S. capitis; Exhibit A1
  MBC, minimum concentration required to kill an entire population: 8000 µg/mL and 10000 µg/mL
S. capitis; Exhibit A2
  MIC, minimum concentration required to inhibit growth: <500 µg/mL
S. xylosus; Exhibit A1
  MBC, minimum concentration required to kill an entire population: 6000 µg/mL
S. xylosus; Exhibit A2
  MIC, minimum concentration required to inhibit growth: <500 µg/mL
Coryneform strait/amy; Exhibit A1
  MBC, minimum concentration required to kill an entire population: <500 µg/mL
Coryneform strait/amy; Exhibit A2
  MIC, minimum concentration required to inhibit growth: <500 µg/mL
Kleb. oxytoca; Exhibit A1
  MBC, minimum concentration required to kill an entire population: 15000 µg/mL
Kleb. oxytoca; Exhibit A2
  MIC, minimum concentration required to inhibit growth: 1000 µg/mL
C. lucitaniae
  MIC's, Minimum Inhibitory Concentration: 500 µg/mL
C. glabrata
  MIC's, Minimum Inhibitory Concentration: 500 µg/mL
C. albicans
  MIC's, Minimum Inhibitory Concentration: 500 µg/mL
C. parapsilosis
  MIC's, Minimum Inhibitory Concentration: 500 µg/mL
C. tropicalis
  MIC's, Minimum Inhibitory Concentration: 1000 µg/mL
C. guilliermondii
  MIC's, Minimum Inhibitory Concentration: 500 µg/mL
Variety of microbes
  anti-microbial (antifungal and antibacterial) properties compared with the disodium salt: superior to disodium EDTA
Acinetobacter baumanii
  MIC, minimum concentration required to inhibit growth: <500 µg/mL
Ent. cloacae; Exhibit A1
  MBC, minimum concentration required to kill an entire population: 15000 µg/mL and >15000 µg/mL
Ent. cloacae; Exhibit A2
  MIC, minimum concentration required to inhibit growth: 4000 µg/mL and 6000 µg/mL
